Laboratory results as given in US7932270B2 (Cytokinetics, Inc., priority 2006, dated 2011).

Target: T1, chicken gizzard smooth muscle myosin subfragment-1 chemically crosslinked to cardiac or skeletal actin (Gallus gallus, UniProt P10587)
T1 construct: chicken gizzard smooth muscle myosin subfragment-1; from tissue; host or cells: chicken gizzard
Experiment: Smooth muscle myosin ATPase dose response assay (pyruvate kinase/horseradish peroxidase/pyruvate oxidase-coupled, amplex red fluorescence)
Assay type: biochemical
Conditions: read-out: IC50 Arithmetic Mean
Outline: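 Chicken gizzard myosin S1 crosslinked to cardiac or skeletal actin, titrated to a set hydrolysis rate; 0.15 mM ATP, 12 mM PIPES pH 7.00, 100 mM KCl, 2 mM MgCl2. Pyruvate kinase/pyruvate oxidase/HRP coupling with amplex red fluorescence; IC50 from 4-parameter fit.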

T1 sequence (P02607 2-151): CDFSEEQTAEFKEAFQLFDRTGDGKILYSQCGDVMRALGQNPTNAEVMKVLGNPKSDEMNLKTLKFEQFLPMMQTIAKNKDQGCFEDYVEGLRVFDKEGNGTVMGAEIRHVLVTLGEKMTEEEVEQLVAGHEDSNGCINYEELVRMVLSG
T1 sequence (P10587 84-789): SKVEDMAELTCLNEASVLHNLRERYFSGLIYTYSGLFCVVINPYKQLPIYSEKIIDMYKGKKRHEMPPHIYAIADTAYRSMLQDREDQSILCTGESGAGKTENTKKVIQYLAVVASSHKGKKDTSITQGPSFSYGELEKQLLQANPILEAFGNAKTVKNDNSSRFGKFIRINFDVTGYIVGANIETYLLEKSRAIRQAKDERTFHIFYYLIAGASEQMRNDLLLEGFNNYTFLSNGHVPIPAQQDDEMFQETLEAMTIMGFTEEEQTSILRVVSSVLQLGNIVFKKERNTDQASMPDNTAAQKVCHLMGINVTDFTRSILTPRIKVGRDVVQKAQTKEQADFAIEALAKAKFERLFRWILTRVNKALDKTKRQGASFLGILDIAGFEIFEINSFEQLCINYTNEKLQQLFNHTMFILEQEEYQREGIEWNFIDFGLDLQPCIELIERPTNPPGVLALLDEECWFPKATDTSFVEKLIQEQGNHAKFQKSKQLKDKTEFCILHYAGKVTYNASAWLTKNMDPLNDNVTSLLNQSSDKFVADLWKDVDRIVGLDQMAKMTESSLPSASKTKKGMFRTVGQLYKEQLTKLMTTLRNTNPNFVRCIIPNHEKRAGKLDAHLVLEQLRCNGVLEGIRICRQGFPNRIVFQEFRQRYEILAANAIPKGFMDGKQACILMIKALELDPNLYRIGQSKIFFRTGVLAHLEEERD

IC50 [nM]	Compound
581	Cn1cc(-c2ccc(C(=O)NC[C@H]3CCCN3C(=O)CN)c(NCCc3cccc(F)c3)n2)cn1 [N-{[(2R)-1-(2-aminoacetyl)pyrrolidin-2-yl]methyl}(2-{[2-(3-fluorophenyl)ethyl]amino}-6-(1-methylpyrazol-4-yl)(3-pyridyl))carboxamide]
18600	CNC(=O)c1ccc(-c2ccccc2)nc1NCCc1ccccc1 [N-methyl{6-phenyl-2-[(2-phenylethyl)amino](3-pyridyl)}carboxamide]
572	N#Cc1ccccc1-c1ccc(C(=O)NCC2CCN(C(=O)CN)CC2)c(NCCc2cccc(F)c2)n1 [N-{[1-(2-aminoacetyl)(4-piperidyl)]methyl}(6-(2-cyanophenyl)-2-{[2-(3-fluorophenyl)ethyl]amino}(3-pyridyl))carboxamide]
11800	N#Cc1ccccc1-c1ccc(C(=O)NCCN2CCC[C@H](NC(=O)OCc3ccccc3)C2=O)c(NCCc2cccc(F)c2)n1 [(6-(2-cyanophenyl)-2-{[2-(3-fluorophenyl)ethyl]amino}(3-pyridyl))-N-(2-{2-oxo-3-[(phenylmethoxy)carbonylamino]piperidyl}ethyl)carboxamide]
2240	O=C(NCc1cccnc1)c1ccc(-c2sccc2CO)nc1NCCc1cccc(F)c1 [(2-{[2-(3-fluorophenyl)ethyl]amino}-6-[3-(hydroxymethyl)(2-thienyl)](3-pyridyl))-N-(3-pyridylmethyl)carboxamide]
1490	NCCn1ccc(CNC(=O)c2ccc(-c3cn[nH]c3)nc2NCCc2cccc(F)c2)n1 [N-{[1-(2-aminoethyl)pyrazol-3-yl]methyl}(2-{[2-(3-fluorophenyl)ethyl]amino}-6-pyrazol-4-yl(3-pyridyl))carboxamide]
115	C[C@H](CNC(=O)c1cc(F)c(-c2cnn(C)c2)nc1NCCc1cccc(F)c1)NC(=O)[C@@H](N)CO
12	N#Cc1ccccc1-c1ccc(C(=O)NCc2cccc(CN)c2)c(NCCc2cccc(F)c2)n1 [N-{[3-(aminomethyl)phenyl]methyl}(6-(2-cyanophenyl)-2-{[2-(3-fluorophenyl)ethyl]amino}(3-pyridyl))carboxamide]
21900	O=C(O)c1cccc(CCNc2nc(-c3ccccc3)ccc2C(=O)NCc2cccnc2)c1 [3-[2-({6-phenyl-3-[N-(3-pyridylmethyl)carbamoyl]-2-pyridyl}amino)ethyl]benzoic acid]
443	C[C@@H](N)CNC(=O)c1cc(F)c(-c2cn[nH]c2)nc1NCCc1cccc(F)c1 [N-((2R)-2-aminopropyl)(5-fluoro-2-{[2-(3-fluorophenyl)ethyl]amino}-6-pyrazol-4-yl(3-pyridyl))carboxamide]
2810	N#Cc1ccccc1-c1ccc(C(=O)NC[C@H]2CN(CCCN)CC(=O)N2)c(NCCc2cccc(F)c2)n1 [N-{[(2S)-4-(3-aminopropyl)-6-oxopiperazin-2-yl]methyl}(6-(2-cyanophenyl)-2-{[2-(3-fluorophenyl)ethyl]amino}(3-pyridyl))carboxamide]
3130	NCCCN1CCC(CNC(=O)c2ccc(-c3cn[nH]c3)nc2NCCc2cccc(F)c2)C1=O (stereo not shown) [N-{[1-(3-aminopropyl)-2-oxopyrrolidin-3-yl]methyl}(2-{[2-(3-fluorophenyl)ethyl]amino}-6-pyrazol-4-yl(3-pyridyl))carboxamide]
1020	N#Cc1ccccc1-c1ccc(C(=O)N[C@@H](CO)C(N)=O)c(NCCc2cccc(F)c2)n1 [N-((1S)-1-carbamoyl-2-hydroxyethyl)(6-(2-cyanophenyl)-2-{[2-(3-fluorophenyl)ethyl]amino}(3-pyridyl))carboxamide]
99	N#Cc1ccccc1-c1ccc(C(=O)NCCC(N)=O)c(NCCc2cccc(F)c2)n1 [N-(2-carbamoylethyl)(6-(2-cyanophenyl)-2-{[2-(3-fluorophenyl)ethyl]amino}(3-pyridyl))carboxamide]
370	N#Cc1ccccc1-c1ccc(C(=O)NC[C@H]2CCCCN2S(=O)(=O)CCCN)c(NCCc2cccc(F)c2)n1 [N-({(2R)-1-[(3-aminopropyl)sulfonyl](2-piperidyl)}methyl)(6-(2-cyanophenyl)-2-{[2-(3-fluorophenyl)ethyl]amino}(3-pyridyl))carboxamide]
95	N#Cc1ccccc1-c1ccc(C(=O)NCC2CCCCC(=O)N2)c(NCCc2cccc(F)c2)n1 (stereo not shown) [(6-(2-cyanophenyl)-2-{[2-(3-fluorophenyl)ethyl]amino}(3-pyridyl))-N-[(7-oxoazaperhydroepin-2-yl)methyl]carboxamide]
5700	N#Cc1ccccc1-c1ccc(C(=O)NC[C@@H](COC(=O)CN)NC(=O)CN)c(NCCc2cccc(F)c2)n1 [(2S)-2-(2-aminoacetylamino)-3-[(6-(2-cyanophenyl)-2-{[2-(3-fluorophenyl)ethyl]amino}(3-pyridyl))carbonylamino]propyl 2-aminoacetate]
156	Cn1cc(-c2ccc(C(=O)NC[C@H]3CCC(=O)N3)c(NCCc3cccc(F)c3)n2)cn1 [N-[((2R)-5-oxopyrrolidin-2-yl)methyl](2-{[2-(3-fluorophenyl)ethyl]amino}-6-(1-methylpyrazol-4-yl)(3-pyridyl))carboxamide]
16000	O=C1CNC[C@@H](CNC(=O)c2ccc(-c3cn[nH]c3)nc2NCCc2cccc(F)c2)N1 [N-[((2S)-6-oxopiperazin-2-yl)methyl](2-{[2-(3-fluorophenyl)ethyl]amino}-6-pyrazol-4-yl(3-pyridyl))carboxamide]
28300	O=C(NCc1cccnc1)c1ccc(-c2ccccc2)nc1NCCc1ccc2c(c1)OCO2
4650	N#Cc1cccc(CCNc2nc(-c3ccccc3)ccc2C(=O)NCc2cccnc2)c1 [(2-{[2-(3-cyanophenyl)ethyl]amino}-6-phenyl(3-pyridyl))-N-(3-pyridylmethyl)carboxamide]
5550	CNC(=O)[C@H](CNC(=O)c1ccc(-c2ccccc2C#N)nc1NCCc1cccc(F)c1)NC(C)=O [(2S)-2-(acetylamino)-3-[(6-(2-cyanophenyl)-2-{[2-(3-fluorophenyl)ethyl]amino}(3-pyridyl))carbonylamino]-N-methylpropanamide]
48400	CC(=O)N1CCCC(CNC(=O)c2ccc(-c3ccccc3)nc2NCCc2ccccn2)C1 (stereo not shown) [N-[(1-acetyl(3-piperidyl))methyl]{6-phenyl-2-[(2-(2-pyridyl)ethyl)amino](3-pyridyl)}carboxamide]
2780	N#Cc1ccccc1-c1ccc(C(=O)NC[C@H]2CNCCN2C(=O)CN)c(NCCc2cccc(F)c2)n1 [N-{[(2R)-1-(2-aminoacetyl)piperazin-2-yl]methyl}(6-(2-cyanophenyl)-2-{[2-(3-fluorophenyl)ethyl]amino}(3-pyridyl))carboxamide]
350	CNC(=O)CNC(=O)c1ccc(-c2cnn(C)c2)nc1NCCc1cccc(F)c1 [2-[(2-{[2-(3-fluorophenyl)ethyl]amino}6-(1-methylpyrazol-4-yl)(3-pyridyl))carbonylamino]-N-methylacetamide]
5620	N#Cc1ccccc1-c1ccc(C(=O)NCCCN2C(=O)CC[C@@H]2CN=[N+]=[N-])c(NCCc2cccc(F)c2)n1

Compound	IC50 [nM]
CC(C)(C)OC(=O)NCc1ncccc1CNC(=O)c1cc(F)c(-c2cn[nH]c2)nc1NCCc1cccc(F)c1 [N-[(2-{[(tert-butoxy)carbonylamino]methyl}(3-pyridyl))methyl](5-fluoro-2-{[2-(3-fluorophenyl)ethyl]amino}-6-pyrazol-4-yl(3-pyridyl))carboxamide]	488
CC(C)(C)OC(=O)NCCCN1CCC(CNC(=O)c2ccc(-c3ccccc3C#N)nc2NCCc2cccc(F)c2)C1=O (stereo not shown) [N-[(1-{3-[(tert-butoxy)carbonylamino]propyl}-2-oxopyrrolidin-3-yl)methyl](6-(2-cyanophenyl)-2-{[2-(3-fluorophenyl)ethyl]amino}(3-pyridyl))carboxamide]	104
CC(C)(C)OC(=O)NCCCN1C(=O)CC[C@H]1CNC(=O)c1ccc(-c2ccccc2C#N)nc1NCCc1cccc(F)c1 [N-[((2S)-1-{3-[(tert-butoxy)carbonylamino]propyl}-5-oxopyrrolidin-2-yl)methyl](6-(2-cyanophenyl)-2-{[2-(3-fluorophenyl)ethyl]amino}(3-pyridyl))carboxamide]	4520
CC(C)(C)OC(=O)NCCC(=O)N1CCC[C@@H]1CNC(=O)c1cc(F)c(-c2cn[nH]c2)nc1NCCc1cccc(F)c1 [N-[((2R)-1-{3-[(tert-butoxy)carbonylamino]propanoyl}pyrrolidin-2-yl)methyl](5-fluoro-2-{[2-(3-fluorophenyl)ethyl]amino}-6-pyrazol-4-yl(3-pyridyl))carboxamide]	980
CC[C@H](CNC(=O)c1cc(F)c(-c2cn[nH]c2)nc1NCCc1cccc(F)c1)NC(=O)CNC(=O)OC(C)(C)C [N-((1R)-1-{[(5-fluoro-2-{[2-(3-fluorophenyl)ethyl]amino}-6-pyrazol-4-yl(3-pyridyl))carbonylamino]methyl}propyl)-2-[(tert-butoxy)carbonylamino]acetamide]	4320
CC(C)(C)OC(=O)NCCN1CCC[C@@H]1CNC(=O)c1ccc(-c2ccccc2C#N)nc1NCCc1cccc(F)c1 [N-[((2R)-1-{2-[(tert-butoxy)carbonylamino]ethyl}pyrrolidin-2-yl)methyl](6-(2-cyanophenyl)-2-{[2-(3-fluorophenyl)ethyl]amino}(3-pyridyl))carboxamide]	3690
CC(C)(C)OC(=O)N[C@@H](CO)C(=O)N1CC[C@@H]1CNC(=O)c1ccc(-c2ccccc2C#N)nc1NCCc1cccc(F)c1 [N-[2-((2R)-2-{[(6-(2-cyanophenyl)-2-{[2-(3-fluorophenyl)ethyl]amino}(3-pyridyl))carbonylamino]methyl}azetidinyl)(1S)-1-(hydroxymethyl)-2-oxoethyl](tert-butoxy)carboxamide]	2480
C[C@H](NC(=O)OC(C)(C)C)C(=O)N1CCC[C@@H]1CNC(=O)c1ccc(-c2ccccc2C#N)nc1NCCc1cccc(F)c1 [N-[2-((2R)-2-{[(6-(2-cyanophenyl)-2-{[2-(3-fluorophenyl)ethyl]amino}(3-pyridyl))carbonylamino]methyl}pyrrolidinyl)(1S)-1-methyl-2-oxoethyl](tert-butoxy)carboxamide]	3260
